Legend:
rat bone marrow cultures [1] = assay: APA in rat bone marrow cultures treated with BaP; assay type: cell-based; settings: increasing concentrations of BaP, ten-day old cultures
Description: In this experiment, the effects of the aryl hydrocarbon, benzo-a-pyrene (BaP) on the early events occurring during osteogenesis were determined. Ten-day old rat bone marrow cultures were treated with increasing concentrations of BaP. The effect of this treatment was monitored by APA as set out above.

rat bone marrow cultures [2] = assay: Mineral levels in rat bone marrow cultures treated with BaP; assay type: cell-based; settings: BaP at 10^−8M

Question: Which results are given for `c1ccc2c(c1)cc1ccc3cccc4ccc2c1c34` [BaP, benzo-a-pyrene, reference compound]?
Answer: inhibition of alkaline phosphatase (rat bone marrow cultures [1]): increased inhibition of alkaline phosphatase with increasing BaP concentration; inhibition of mineral levels (rat bone marrow cultures [2]): ≤ 90%
